# Measured values reported in ChEMBL document CHEMBL1129130, “Preparation, antimicrobial evaluation and mutagenicity of differently substituted [2-hydroxyaryl]-[1-methyl-5-nitro-1H-2-imidazolyl]methanols” (1996).
# Experiments:
# [1] = Minimum inhibitory concentration (MIC) of compound expressed as geometric mean of various bacterias.*; type: functional
# [2] = test system: Salmonella typhimurium; experiment: Compound was tested for the mutagenicity activity in the Salmonella Typhimurium reverse mutation assay;(+) - low levels of mutagenicity; type: functional, organism-based; conditions: Salmonella enterica subsp. enterica serovar Typhimurium
# [3] = test system: Salmonella typhimurium; experiment: Compound was tested for the mutagenicity activity in the Salmonella Typhimurium reverse mutation assay; ++/+++-indicates the levels of mutagenicity as the number of revertant colonies obtained increases 5/10 times; type: functional, organism-based; conditions: Salmonella enterica subsp. enterica serovar Typhimurium
# [4] = test system: Salmonella typhimurium; experiment: Compound was tested for the mutagenicity activity in the Salmonella Typhimurium reverse mutation assay (+) - low levels of mutagenicity; type: functional, organism-based; conditions: Salmonella enterica subsp. enterica serovar Typhimurium
# [5] = Minimum inhibitory concentration (MIC) of compound expressed as geometric mean of various bacterias.; type: functional
# [6] = test system: Salmonella typhimurium; experiment: Compound was tested for the mutagenicity activity in the Salmonella Typhimurium reverse mutation assay; (+) - low levels of mutagenicity; type: functional, organism-based; conditions: Salmonella enterica subsp. enterica serovar Typhimurium
# [7] = test system: Salmonella typhimurium; experiment: Compound was tested for the mutagenicity activity in the Salmonella Typhimurium reverse mutation assay; +-indicates the levels of mutagenicity as the number of revertant colonies obtained increases 1.5-2 times; type: functional, organism-based; conditions: Salmonella enterica subsp. enterica serovar Typhimurium
SMILES,MIC [1] [µM],further results
Cn1c([N+](=O)[O-])cnc1C(O)c1cc(F)cc(C2C3C[C@H]4C[C@@H](C3)C[C@@H]2C4)c1O (some centres undefined),3.97,Mutagenicity [2]: low levels of mutagenicity
Cn1c([N+](=O)[O-])cnc1C(O)c1cc(C(C)(C)C)ccc1O (centres undefined) [ABUNIDAZOLE],13.1,Mutagenicity [3]: ++/+
Cc1ncc([N+](=O)[O-])n1CCO [METRONIDAZOLE],1.46,
COc1cc(C(O)c2ncc([N+](=O)[O-])n2C)c(O)c(C(C)(C)C)c1 (centres undefined),28.2,
Cn1c([N+](=O)[O-])cnc1C(O)c1cc(C2CCCCC2)ccc1O (centres undefined),,Mutagenicity [4]: low levels of mutagenicity; MIC [5]: 8.82 µM
Cn1c([N+](=O)[O-])cnc1C(O)c1cc(C2C3C[C@H]4C[C@@H](C3)C[C@@H]2C4)ccc1O (some centres undefined),1.8,
Cn1c([N+](=O)[O-])cnc1C(O)c1cc(Cl)cc(C2C3C[C@H]4C[C@@H](C3)C[C@@H]2C4)c1O (some centres undefined),6.78,Mutagenicity [2]: low levels of mutagenicity
COc1cc(C(O)c2ncc([N+](=O)[O-])n2C)c(O)c(C2C3C[C@H]4C[C@@H](C3)C[C@@H]2C4)c1 (some centres undefined),4.21,Mutagenicity [6]: low levels of mutagenicity
Cn1c([N+](=O)[O-])cnc1C(O)c1cccc(C23C[C@H]4C[C@@H](C2)C[C@@H](C3)C4)c1O (some centres undefined),4.46,Mutagenicity [7]: Levels of mutagencity as the number of revertant colonies obtained increases 1.5-2 times
Cn1c([N+](=O)[O-])cnc1C(O)c1cccc(C2C3C[C@H]4C[C@@H](C3)C[C@@H]2C4)c1O (some centres undefined),3.84,
Cn1c([N+](=O)[O-])cnc1C(O)c1cccc(C2CCCCC2)c1O (centres undefined),4.68,Mutagenicity [7]: Levels of mutagencity as the number of revertant colonies obtained increases 1.5-2 times
Cn1c([N+](=O)[O-])cnc1C(O)c1cc(C23C[C@H]4C[C@@H](C2)C[C@@H](C3)C4)ccc1O (some centres undefined),2.43,
